Experimental data from the supplement of paper PMC6045584.
± gives the standard deviation of the averaged measurements.

Columns and labels:
[1] = compound: Cc1cn(-c2cc(NC(=O)c3ccc(C)c(Nc4nccc(-c5cccnc5)n4)c3)cc(C(F)(F)F)c2)cn1 [NILOTINIB]; test: surviving fraction relative to DMSO-only wells; higher = less growth inhibition; conditions: exposure time: 5 days
Method in brief: (§1)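 Log-phase tumour cell lines were seeded at 250–500 cells per well in 384-well plates. After 24 hours they were exposed continuously for five days to inhibitors at 0.5, 1, 5, 10, 50, 100, 500 and 1000 nM. Viability was read by CellTiter-Glo luminescence after 10 minutes at room temperature, and surviving fraction is luminescence normalised to the median of DMSO-only wells. Each line was screened three times and kept only if replicate Pearson r >0.7 and median Z' >0.3.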

[2] = compound: Cn1c(=O)n(-c2ccc(C(C)(C)C#N)cc2)c2c3cc(-c4cnc5ccccc5c4)ccc3ncc21 [BEZ-235]; test: as above; conditions: exposure time: 5 days
Method in brief: as §1

| Test System | surviving fraction ([1]; 0.5 nM) | surviving fraction ([1]; 1 nM) | surviving fraction ([1]; 5 nM) | surviving fraction ([1]; 10 nM) | surviving fraction ([1]; 50 nM) | surviving fraction ([1]; 100 nM) | surviving fraction ([1]; 500 nM) | surviving fraction ([1]; 1000 nM) | surviving fraction ([2]; 0.5 nM) | surviving fraction ([2]; 1 nM) | surviving fraction ([2]; 5 nM) | surviving fraction ([2]; 10 nM) | surviving fraction ([2]; 50 nM) | surviving fraction ([2]; 100 nM) | surviving fraction ([2]; 500 nM) | surviving fraction ([2]; 1000 nM) |
| --- | --- | --- | --- | --- | --- | --- | --- | --- | --- | --- | --- | --- | --- | --- | --- | --- |
| SYO1 SYNOVIAL | 0.9541 ± 0.0069 | 0.979 ± 0.064 | 0.97 ± 0.062 | 0.974 ± 0.036 | 0.936 ± 0.036 | 0.976 ± 0.056 | 0.805 ± 0.062 | 0.743 ± 0.032 | 1.02 ± 0.036 | 0.973 ± 0.054 | 0.942 ± 0.065 | 0.96 ± 0.023 | 0.705 ± 0.04 | 0.457 ± 0.017 | 0.196 ± 0.011 | 0.117 ± 0.0081 |
| VCAP PROSTATE | 0.999 ± 0.1 | 1.03 ± 0.088 | 1.16 ± 0.13 | 1.06 ± 0.076 | 1.02 ± 0.075 | 0.966 ± 0.073 | 0.952 ± 0.14 | 0.862 ± 0.067 | 1.08 ± 0.1 | 0.994 ± 0.09 | 1.12 ± 0.082 | 1.13 ± 0.12 | 0.902 ± 0.1 | 0.867 ± 0.056 | 0.422 ± 0.053 | 0.402 ± 0.0052 |
| HELA CERVIX | 1.05 ± 0.016 | 1.03 ± 0.053 | 1.09 ± 0.034 | 1 ± 0.033 | 1.09 ± 0.079 | 1.06 ± 0.073 | 1.15 ± 0.074 | 1.091 ± 0.0094 | 1.05 ± 0.087 | 1.09 ± 0.069 | 1.112 ± 0.0048 | 1.02 ± 0.035 | 1.12 ± 0.061 | 1.2 ± 0.028 | 0.7 ± 0.019 | 0.4533 ± 0.0038 |
| SAOS2 BONE | 1.13 ± 0.064 | 1.09 ± 0.038 | 1.19 ± 0.035 | 1.21 ± 0.062 | 0.963 ± 0.072 | 0.912 ± 0.091 | 0.91 ± 0.016 | 0.905 ± 0.06 | 1.18 ± 0.055 | 1.12 ± 0.043 | 1.171 ± 0.01 | 1.23 ± 0.1 | 1.08 ± 0.045 | 0.874 ± 0.0098 | 0.433 ± 0.039 | 0.36 ± 0.014 |
| HCC1395 BREAST | 1.01 ± 0.038 | 0.988 ± 0.097 | 1.2 ± 0.074 | 1.19 ± 0.023 | 1.03 ± 0.055 | 1.03 ± 0.16 | 0.854 ± 0.062 | 0.929 ± 0.14 | 1.03 ± 0.12 | 0.967 ± 0.11 | 1.14 ± 0.095 | 1.09 ± 0.037 | 0.988 ± 0.12 | 1 ± 0.13 | 0.788 ± 0.12 | 0.759 ± 0.17 |
| HCC202 BREAST | 1.36 ± 0.11 | 1.08 ± 0.044 | 0.83 ± 0.15 | 0.987 ± 0.5 | 1.01 ± 0.22 | 1.09 ± 0.069 | 1.08 ± 0.052 | 0.912 ± 0.034 | 1.02 ± 0.32 | 1.07 ± 0.036 | 1.21 ± 0.22 | 1.34 ± 0.32 | 1.07 ± 0.32 | 0.722 ± 0.27 | 0.388 ± 0.089 | 0.232 ± 0.046 |
| MDAMB361 BREAST | 0.632 ± 0.033 | 0.953 ± 0.057 | 0.69 ± 0.11 | 0.743 ± 0.06 | 0.533 ± 0.078 | 0.601 ± 0.059 | 0.619 ± 0.02 | 0.539 ± 0.1 | 0.888 ± 0.068 | 0.854 ± 0.045 | 0.904 ± 0.03 | 0.882 ± 0.051 | 0.794 ± 0.078 | 0.636 ± 0.037 | 0.355 ± 0.015 | 0.313 ± 0.02 |
| COLO320DM LARGE INTESTINE | 1.12 ± 0.059 | 1.04 ± 0.086 | 1.05 ± 0.13 | 1.08 ± 0.061 | 1.06 ± 0.095 | 0.961 ± 0.022 | 0.949 ± 0.024 | 0.764 ± 0.04 | 1.06 ± 0.059 | 1.12 ± 0.08 | 1.14 ± 0.074 | 1.06 ± 0.039 | 0.869 ± 0.07 | 0.692 ± 0.034 | 0.328 ± 0.018 | 0.192 ± 0.0043 |
| SCC003 HEADNECK | 1.1 ± 0.048 | 1.03 ± 0.14 | 1.1 ± 0.037 | 1.04 ± 0.02 | 0.873 ± 0.38 | 1 ± 0.23 | 0.906 ± 0.24 | 0.995 ± 0.13 | 1.06 ± 0.089 | 1.11 ± 0.036 | 1.08 ± 0.13 | 1.08 ± 0.11 | 0.776 ± 0.12 | 0.717 ± 0.093 | 0.366 ± 0.02 | 0.289 ± 0.04 |
| MG63 BONE | 1.03 ± 0.04 | 1.04 ± 0.053 | 1.11 ± 0.042 | 1.13 ± 0.079 | 1.19 ± 0.043 | 1.23 ± 0.07 | 1.24 ± 0.047 | 1.28 ± 0.049 | 1.04 ± 0.071 | 1.03 ± 0.027 | 1.06 ± 0.067 | 1.03 ± 0.052 | 0.582 ± 0.026 | 0.45 ± 0.024 | 0.17 ± 0.014 | 0.143 ± 0.011 |
| SG43 HEADNECK | 1.19 ± 0.17 | 1.12 ± 0.25 | 1.05 ± 0.13 | 1.05 ± 0.055 | 1.66 ± 0.17 | 1.76 ± 0.32 | 1.93 ± 0.23 | 1.98 ± 0.2 | 0.984 ± 0.18 | 1.23 ± 0.35 | 0.946 ± 0.1 | 0.956 ± 0.048 | 0.763 ± 0.12 | 0.77 ± 0.11 | 0.555 ± 0.037 | 0.36 ± 0.036 |
| MDAMB134 BREAST | 0.803 ± 0.068 | 1.15 ± 0.12 | 0.865 ± 0.013 | 0.808 ± 0.15 | 0.74 ± 0.12 | 0.72 ± 0.099 | 0.672 ± 0.034 | 0.716 ± 0.13 | 1.08 ± 0.058 | 1.17 ± 0.033 | 1.11 ± 0.024 | 1.09 ± 0.021 | 0.881 ± 0.025 | 0.83 ± 0.083 | 0.474 ± 0.15 | 0.476 ± 0.03 |
| SG27 HEADNECK | 1.13 ± 0.03 | 1.09 ± 0.087 | 1.02 ± 0.066 | 1.06 ± 0.063 | 1.11 ± 0.21 | 1.04 ± 0.056 | 1.17 ± 0.091 | 1.23 ± 0.051 | 0.989 ± 0.032 | 1.06 ± 0.041 | 0.888 ± 0.063 | 1.04 ± 0.049 | 0.91 ± 0.084 | 0.908 ± 0.065 | 0.717 ± 0.061 | 0.611 ± 0.04 |
| 143B BONE | 1.09 ± 0.076 | 1.07 ± 0.043 | 1.13 ± 0.1 | 1.11 ± 0.081 | 1.14 ± 0.12 | 1.14 ± 0.11 | 1.1 ± 0.11 | 1.11 ± 0.11 | 1.03 ± 0.047 | 1.04 ± 0.047 | 1.031 ± 0.0028 | 1.0385 ± 0.00071 | 0.852 ± 0.033 | 0.735 ± 0.017 | 0.36 ± 0.017 | 0.336 ± 0.0028 |
| NOS1 BONE | 0.958 ± 0.048 | 1.11 ± 0.029 | 1.07 ± 0.093 | 1.21 ± 0.048 | 1.02 ± 0.045 | 0.849 ± 0.013 | 0.666 ± 0.019 | 0.606 ± 0.03 | 1.09 ± 0.1 | 1.08 ± 0.089 | 1.08 ± 0.085 | 1.08 ± 0.046 | 0.6 ± 0.036 | 0.49 ± 0.11 | 0.206 ± 0.024 | 0.166 ± 0.032 |
| LNCAP PROSTATE | 1.12 ± 0.083 | 1.13 ± 0.12 | 1.08 ± 0.011 | 1.01 ± 0.072 | 1.14 ± 0.076 | 1.1 ± 0.15 | 1.16 ± 0.031 | 1.03 ± 0.066 | 0.998 ± 0.11 | 0.934 ± 0.06 | 0.887 ± 0.14 | 0.9 ± 0.12 | 0.405 ± 0.016 | 0.255 ± 0.039 | 0.087 ± 0.014 | 0.0853 ± 0.011 |
| JURKAT HAEMATOPOIETIC AND LYMPHOID TISSUE | 1.1 ± 0.025 | 1.1 ± 0.027 | 1.07 ± 0.029 | 1.06 ± 0.021 | 1.042 ± 0.009 | 1.02 ± 0.044 | 1.04 ± 0.026 | 0.91 ± 0.057 | 1.05 ± 0.03 | 1.07 ± 0.032 | 1.05 ± 0.024 | 1.05 ± 0.03 | 0.788 ± 0.021 | 0.582 ± 0.021 | 0.211 ± 0.0053 | 0.056 ± 0.001 |
| CHLA90 AUTONOMIC GANGLIA | 0.993 ± 0.057 | 1.01 ± 0.082 | 0.957 ± 0.036 | 1.09 ± 0.076 | 1.1 ± 0.055 | 1.14 ± 0.12 | 1.11 ± 0.016 | 1.09 ± 0.077 | 0.983 ± 0.078 | 1 ± 0.033 | 0.979 ± 0.057 | 0.947 ± 0.05 | 0.644 ± 0.046 | 0.428 ± 0.024 | 0.175 ± 0.0087 | 0.106 ± 0.0023 |
| MDAMB468 BREAST | 0.908 ± 0.055 | 0.931 ± 0.043 | 0.935 ± 0.069 | 1.05 ± 0.024 | 0.927 ± 0.037 | 0.835 ± 0.0095 | 0.9353 ± 0.0015 | 0.927 ± 0.045 | 1.08 ± 0.038 | 1.11 ± 0.015 | 1.07 ± 0.06 | 1.13 ± 0.018 | 1.06 ± 0.093 | 0.885 ± 0.05 | 0.366 ± 0.03 | 0.247 ± 0.013 |
| HSSYII SYNOVIAL | 0.907 ± 0.018 | 1 ± 0.033 | 0.973 ± 0.015 | 0.987 ± 0.052 | 0.9 ± 0.061 | 0.954 ± 0.029 | 0.874 ± 0.029 | 0.785 ± 0.036 | 0.963 ± 0.072 | 0.921 ± 0.062 | 0.933 ± 0.012 | 0.88 ± 0.032 | 0.548 ± 0.017 | 0.38 ± 0.0082 | 0.165 ± 0.0072 | 0.129 ± 0.013 |
| H23 LUNG | 1.04 ± 0.077 | 1.05 ± 0.052 | 1.14 ± 0.025 | 1.08 ± 0.033 | 1.24 ± 0.096 | 1.26 ± 0.088 | 1.18 ± 0.094 | 1.17 ± 0.1 | 1.02 ± 0.051 | 1.04 ± 0.081 | 0.961 ± 0.057 | 0.903 ± 0.042 | 0.496 ± 0.055 | 0.382 ± 0.033 | 0.22 ± 0.015 | 0.194 ± 0.0072 |
